Reference: patent US10975083B2, “Blood-brain barrier-penetrant dopamine-β-hydroxylase inhibitors” (BIAL—PORTELA & Cᵃ, S.A., priority 2016, dated 2021)
Where two headings read alike, the source gives them in different places.

Biological target: T1, DβH (Homo sapiens, UniProt P09172)
T1 construct: reaction mixture (total volume 500 μl) contained: cellular homogenate (75 μg total protein); host or cells: SK-N-SH cell homogenate
T1 sequence (P09172 1-617): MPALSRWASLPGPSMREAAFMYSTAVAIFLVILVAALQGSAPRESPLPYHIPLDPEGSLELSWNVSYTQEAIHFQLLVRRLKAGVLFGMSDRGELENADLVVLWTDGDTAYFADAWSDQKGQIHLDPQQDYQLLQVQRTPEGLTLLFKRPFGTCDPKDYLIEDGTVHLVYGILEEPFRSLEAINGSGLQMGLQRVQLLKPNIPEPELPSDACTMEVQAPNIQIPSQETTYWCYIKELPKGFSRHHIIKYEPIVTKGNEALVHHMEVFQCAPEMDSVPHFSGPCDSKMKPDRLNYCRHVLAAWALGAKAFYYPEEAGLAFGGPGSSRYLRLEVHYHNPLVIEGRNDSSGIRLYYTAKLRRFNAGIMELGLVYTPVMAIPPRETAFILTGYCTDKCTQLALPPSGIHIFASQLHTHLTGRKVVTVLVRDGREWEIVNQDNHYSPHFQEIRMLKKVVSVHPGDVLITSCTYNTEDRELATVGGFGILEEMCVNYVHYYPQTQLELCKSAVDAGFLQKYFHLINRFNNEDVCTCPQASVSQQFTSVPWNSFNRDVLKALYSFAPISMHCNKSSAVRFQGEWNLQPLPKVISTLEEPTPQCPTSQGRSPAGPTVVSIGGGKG
Assay: DβH inhibition cell assay (SK-N-SH cellular homogenates, tyramine to octopamine)
Assay type: biochemical
Conditions: for remaining activity at 0.1 µM: inhibitor 0.1 μM, read-out: DβH activity in % of Ctrl (0.1 μM); for remaining activity at 1 µM: read-out: DβH activity in % of Ctrl (1 μM)
Procedure: The ability of a compound to inhibit DβH activity may be assessed using the following cell assay. […] . […] Fetal bovine serum was removed from cells for 4 h prior to collection.
For the preparation of cellular homogenates, media was removed and cell monolayers were washed with 50 mM Tris-HCl pH 7.4. Cells were subsequently scrapped off the flasks and were resuspended in 50 mM Tris pH 7.4. Cell suspensions were homogenized with SilentCrusher M (Heidolph) for a short stroke and resultant homogenates were aliquoted and stored frozen at −80° C.
Total protein was quantified in cellular homogenates with BioRad Protein Assay (BioRad) using a standard curve of BSA (50-250 μg/mL).
DβH activity was measured by a modification of the method of Nagatsu and Udenfriend (Nagatsu, T. and S. Udenfriend: “Photometric assay of dopamine-hydroxylase activity in human blood.” Clin. Chem. 18(9): 980-3, 1972) which is based on the enzymatic hydroxylation of tyramine into octopamine. The octopamine formed is subsequently oxidized to p-hydroxybenzaldehyde and measured by spectrophotometry. In brief, reaction mixture (total volume 500 μl) contained: cellular homogenate (75 μg total protein) sodium acetate pH 5.0 (200 mM), NEM (30 mM), CuSO4 (5 μM), catalase aqueous solution (0.5 mg/mL), pargyline-HCl (1 mM), sodium fumarate (10 mM), ascorbic acid (10 mM), inhibitor or vehicle and tyramine (25 mM). After a 10 min pre-incubation period at 37° C., the reaction was initiated by the addition of tyramine. Reaction was carried out for 45 min at 37° C. before termination with 50 μl PCA (2 M).
Samples were centrifuged for 3 min at 16100 g and supernatants were subjected to solid phase extraction. Solid phase extraction was performed using either SPE cartridges ISOLUTE SCX-3 (100 mg, 1 mL) or SPE 2 mL fixed 96 well plates ISOLUTE SCX-3 (100 mg) previously equilibrated with MilliQ water. Columns/plates were centrifuged at 150 g for 2 min. Eluate was discarded and matrix was washed with 1 mL of MilliQ water after which octopamine was eluted with 2×0.25 mL ammonium hydroxide (4 M). The oxidation of octopamine to p-hydroxybenzaldehyde was carried out for 6 min with 100 μl sodium periodate (2%) and was stopped with 100 μl sodium metabisulfite (10%). Absorbance was measured at 330 nm on a Spectramax microplate reader (Molecular Devices, Sunnyvale, Calif.). All enzymatic reactions were performed in duplicate. Results are reported in the table below as activity in % of control at the inhibitor concentration tested.

[1] = inhibitor 1 μM, SK-N-SH cell homogenate

Compound | remaining activity at 0.1 µM (SK-N-SH cell homogenate) [%] | remaining activity at 1 µM [1] [%] | remaining activity at 1 µM [%]
Fc1cc(Br)cc([C@]23C[C@H]2c2c[nH]c(=S)n2C3)c1 [Example 94, (5aS,6aR)-5a-(3-bromo-5-fluorophenyl)-5,5a,6,6a-tetrahydrocyclopropa[3,4]pyrrolo[1,2-c]imidazole-3 (2H)-thione] | 18.1 | 0 | –
Cc1[nH]c(=S)n2c1C[C@@H](c1cc(F)cc(F)c1)C2 [Example 95, (S)-6-(3,5-difluorophenyl)-1-methyl-2,5,6,7-tetrahydro-3H-pyrrolo[1,2-c]imidazole-3-thione] | – | – | 28.9
Cc1[nH]c(=S)n2c1C[C@H](c1c(F)c(F)cc(F)c1F)C2 [Example 96, (R)-1-methyl-6-(2,3,5,6-tetrafluorophenyl)-2,5,6,7-tetrahydro-3H-pyrrolo[1,2-c]imidazole-3-thione] | 32 | 15 | –
Cc1[nH]c(=S)n2c1C[C@@H](c1c(F)c(F)cc(F)c1F)C2 [Example 97, (S)-1-methyl-6-(2,3,5,6-tetrafluorophenyl)-2,5,6,7-tetrahydro-3H-pyrrolo[1,2-c]imidazole-3-thione] | 41.9 | 7.9 | –
Cc1[nH]c(=S)n2c1C[C@@H](c1c(F)cccc1F)C2 [Example 98, (S)-6-(2,6-difluorophenyl)-1-methyl-2,5,6,7-tetrahydro-3H-pyrrolo[1,2-c]imidazole-3-thione] | – | 39.9 | –
Fc1ccc(Cl)c(F)c1[C@@]12C[C@@H]1c1c[nH]c(=S)n1C2 [Example 103, (5aR,6aS)-5a-(3-chloro-2,6-difluorophenyl)-5,5a,6,6a-tetrahydrocyclopropa[3,4]pyrrolo[1,2-c]imidazole-3 (2H)-thione] | 63.4 | 10.3 | –
Cc1[nH]c(=S)n2c1C[C@H](c1c(F)ccc(Cl)c1F)C2 [Example 104, (R)-6-(3-chloro-2,6-difluorophenyl)-1-methyl-2,5,6,7-tetrahydro-3H-pyrrolo[1,2-c]imidazole-3-thione] | 47.5 | 6 | –
Cc1[nH]c(=S)n2c1C[C@@H](c1c(F)ccc(Cl)c1F)C2 [Example 105, (S)-6-(3-chloro-2,6-difluorophenyl)-1-methyl-2,5,6,7-tetrahydro-3H-pyrrolo[1,2-c]imidazole-3-thione] | 17.4 | 0 | –
Fc1cc(F)cc([C@]23C[C@H]2Cc2c[nH]c(=S)n2C3)c1 [Example 106, (5aS,6aS)-5a-(3,5-difluorophenyl)-2,5,5a,6,6a,7-hexahydro-3H-cyclopropa[d]imidazo[1,5-a]pyridine-3-thione] | – | – | 16.3
C[C@@H]1c2c[nH]c(=S)n2C[C@H]1c1c(F)c(F)cc(F)c1F [Example 107, (6R,7S)-7-methyl-6-(2,3,5,6-tetrafluorophenyl)-2,5,6,7-tetrahydro-3H-pyrrolo[1,2-c]imidazole-3-thione] | – | 54.7 | –
C[C@H]1c2c[nH]c(=S)n2C[C@H]1c1c(F)c(F)cc(F)c1F [Example 108, (6R,7R)-7-methyl-6-(2,3,5,6-tetrafluorophenyl)-2,5,6,7-tetrahydro-3H-pyrrolo[1,2-c]imidazole-3-thione] | – | 38.8 | –
S=c1[nH]cc2n1C[C@@]1(c3cc(Cl)cc(Cl)c3)C[C@@H]21 [Example 109, (5aS,6aR)-5a-(3,5-dichlorophenyl)-5,5a,6,6a-tetrahydrocyclopropa[3,4]pyrrolo[1,2-c]imidazole-3 (2H)-thione] | 67.5 | 17.2 | –
Fc1cc(F)c(F)c([C@H]2CC3CNC(=S)N3C2)c1F (stereo partly drawn) [Example 111, (6R)-6-(2,3,5,6-tetrafluorophenyl)tetrahydro-1H-pyrrolo[1,2-c]imidazole-3(2H)-thione] | – | 48.3 | –
Fc1ccc(F)c([C@@H]2Cc3c[nH]c(=S)n3C2)c1F [Example 112, (S)-6-(2,3,6-trifluorophenyl)-2,5,6,7-tetrahydro-3H-pyrrolo[1,2-c]imidazole-3-thione] | 70 | 10.1 | –
Fc1ccc(F)c([C@H]2Cc3c[nH]c(=S)n3C2)c1F [Example 113, (R)-6-(2,3,6-trifluorophenyl)-2,5,6,7-tetrahydro-3H-pyrrolo[1,2-c]imidazole-3-thione] | 39.6 | 0 | –
Cn1cc2n(c1=S)C[C@@H](c1c(F)c(F)cc(F)c1F)C2 [Example 114, (R)-2-methyl-6-(2,3,5,6-tetrafluorophenyl)-2,5,6,7-tetrahydro-3H-pyrrolo[1,2-c]imidazole-3-thione] | 70.8 | 15.2 | –

Now from value to compound, other results behind:

remaining activity at 0.1 µM (SK-N-SH cell homogenate) [%] | remaining activity at 1 µM [1] [%] | Compound | remaining activity at 1 µM [%]
22 | 0 | [2H]C1([2H])n2c(c[nH]c2=S)[C@@H]2C[C@@]21c1cc(Cl)ccc1F [Example 91, (5aS,6aR)-5a-(5-chloro-2-fluorophenyl)-5,5a,6,6a-tetrahydrocyclopropa[3,4]pyrrolo[1,2-c]imidazole-3(2H)-thione-5,5-d2] | –
2 | 0 | Fc1c(Cl)cccc1[C@]12C[C@H]1c1c[nH]c(=S)n1C2 [Example 92, (5aS,6aR)-5a-(3-chloro-2-fluorophenyl)-5,5a,6,6a-tetrahydrocyclopropa[3,4]pyrrolo[1,2-c]imidazole-3 (2H)-thione] | –
0 | 0 | Fc1ccc(Br)cc1[C@]12C[C@H]1c1c[nH]c(=S)n1C2 [Example 93, (5aS,6aR)-5a-(5-bromo-2-fluorophenyl)-5,5a,6,6a-tetrahydrocyclopropa[3,4]pyrrolo[1,2-c]imidazole-3 (2H)-thione] | –
31.6 | 1 | Cc1[nH]c(=S)n2c1[C@@H]1C[C@]1(c1cc(Cl)ccc1F)C2 [Example 99, (5aS,6aR)-5a-(5-chloro-2-fluorophenyl)-1-methyl-5,5a,6,6a-tetrahydrocyclopropa[3,4]pyrrolo[1,2-c]imidazole-3 (2H)-thione] | –
0 | 0 | [2H]C([2H])([2H])c1[nH]c(=S)n2c1[C@@H]1C[C@]1(c1cc(Cl)ccc1F)C2 [Example 100, (5aS,6aR)-5a-(5-chloro-2-fluorophenyl)-1-(methyl-d3)-5,5a,6,6a-tetrahydrocyclopropa[3,4]pyrrolo[1,2-c]imidazole-3 (2H)-thione] | –
14.5 | 0 | [2H]C([2H])([2H])n1cc2n(c1=S)C[C@@]1(c3cc(Cl)ccc3F)C[C@@H]21 [Example 101, (5aS,6aR)-5a-(5-chloro-2-fluorophenyl)-2-(methyl-d3)-5,5a,6,6a-tetrahydrocyclopropa[3,4]pyrrolo[1,2-c]imidazole-3 (2H)-thione] | –
32 | 0 | [2H]C1([2H])C2([2H])c3c[nH]c(=S)n3CC12c1cc(Cl)ccc1F (stereo not drawn) [Example 102, 5a-(5-chloro-2-fluorophenyl)-5,5a,6,6a-tetrahydrocyclopropa[3,4]pyrrolo[1,2-c]imidazole-3(2H)-thione-6,6,6a-d3] | –
73.8 | 15.9 | Fc1ccc(Cl)cc1[C@@]12C[C@@H]1c1c[nH]c(=S)n1C2 [Example 110, (5aR,6aS)-5a-(5-chloro-2-fluorophenyl)-5,5a,6,6a-tetrahydrocyclopropa[3,4]pyrrolo[1,2-c]imidazole-3 (2H)-thione] | –
